Data published in ChEMBL document CHEMBL1681651, “A broad spectrum anticancer nucleoside with selective toxicity against human colon cells in vitro” (2011).

What was measured:
Format in all cases: functional
A549 = assay: Growth inhibition of human A549 cells assessed as cell growth at 10 uM after 48 hrs by SRB assay; settings: A549, 48 h, read-out: Activity
SF-295 [1] = assay: Growth inhibition of human SF295 cells assessed as cell growth at 10 uM after 48 hrs by SRB assay; settings: SF-295, 48 h, read-out: Activity
SK-MEL-2 = assay: Growth inhibition of human SK-MEL-2 cells assessed as cell growth at 10 uM after 48 hrs by SRB assay; settings: SK-MEL-2, 48 h, read-out: Activity
OVCAR-4 [2] = assay: Growth inhibition of human OVCAR4 cells assessed as cell growth at 10 uM after 48 hrs by SRB assay; settings: OVCAR-4, 48 h, read-out: Activity
MCF7 [3] = assay: Growth inhibition of human MCF7 cells assessed as cell growth at 10 uM after 48 hrs by SRB assay; settings: MCF7, 48 h, read-out: Activity
ACHN = assay: Growth inhibition of human ACHN cells assessed as cell growth at 1 uM after 48 hrs by SRB assay; settings: read-out: Activity
TK-10 = assay: Growth inhibition of human TK10 cells assessed as cell growth at 1 uM after 48 hrs by SRB assay; settings: TK-10, 48 h, read-out: Activity
MCF7 [4] = assay: Growth inhibition of human MCF7 cells assessed as cell growth at 1 uM after 48 hrs by SRB assay; settings: MCF7, 48 h, read-out: Activity
HOP-62 = assay: Growth inhibition of human HOP62 cells after 48 hrs by […] growth inhibition assay; settings: HOP-62, 48 h
NCI-H460 = assay: Growth inhibition of human NCI-H460 cells after 48 hrs by […] growth inhibition assay; settings: NCI-H460, 48 h
M14 [5] = assay: Growth inhibition of human M14 cells after 48 hrs by […] growth inhibition assay; settings: M14, 48 h
UACC-62 [6] = assay: Growth inhibition of human UACC62 cells after 48 hrs by […] growth inhibition assay; settings: UACC-62, 48 h
SNB-75 = assay: Growth inhibition of human SNB75 cells after 48 hrs by […] growth inhibition assay; settings: SNB-75, 48 h
SF-295 [7] = assay: Growth inhibition of human SF295 cells assessed as cell growth at 0.1 uM after 48 hrs by SRB assay; settings: SF-295, 48 h, read-out: Activity
Malme-3M = assay: Growth inhibition of human MALME-3M cells assessed as cell growth at 0.1 uM after 48 hrs by SRB assay; settings: read-out: Activity
SK-MEL-5 [8] = assay: Growth inhibition of human SK-MEL-5 cells assessed as cell growth at 0.1 uM after 48 hrs by SRB assay; settings: SK-MEL-5, 48 h, read-out: Activity
OVCAR-4 [9] = assay: Growth inhibition of human OVCAR4 cells assessed as cell growth at 0.1 uM after 48 hrs by SRB assay; settings: OVCAR-4, 48 h, read-out: Activity
OVCAR-8 = assay: Growth inhibition of human OVCAR8 cells assessed as cell growth at 0.1 uM after 48 hrs by SRB assay; settings: OVCAR-8, 48 h, read-out: Activity
MCF7 [10] = assay: Growth inhibition of human MCF7 cells assessed as cell growth at 0.1 uM after 48 hrs by SRB assay; settings: MCF7, 48 h, read-out: Activity
SF-295 [11] = assay: Growth inhibition of human SF295 cells assessed as cell growth at 100 uM after 48 hrs by SRB assay; settings: SF-295, 48 h, read-out: Activity
SF-539 = assay: Growth inhibition of human SF539 cells assessed as cell growth at 100 uM after 48 hrs by SRB assay; settings: SF-539, 48 h, read-out: Activity
M14 [12] = assay: Growth inhibition of human M14 cells assessed as cell growth at 100 uM after 48 hrs by SRB assay; settings: M14, 48 h, read-out: Activity
SK-MEL-5 [13] = assay: Growth inhibition of human SK-MEL-5 cells assessed as cell growth at 100 uM after 48 hrs by SRB assay; settings: SK-MEL-5, 48 h, read-out: Activity
UACC-62 [14] = assay: Growth inhibition of human UACC62 cells assessed as cell growth at 100 uM after 48 hrs by SRB assay; settings: UACC-62, 48 h, read-out: Activity
A498 = assay: Growth inhibition of human A498 cells assessed as cell growth at 100 uM after 48 hrs by SRB assay; settings: A498, 48 h, read-out: Activity
RXF 393 [15] = assay: Growth inhibition of human RXF393 cells assessed as cell growth at 100 uM after 48 hrs by SRB assay; settings: RXF 393, 48 h, read-out: Activity
DU-145 = assay: Growth inhibition of human DU145 cells assessed as cell growth at 100 uM after 48 hrs by SRB assay; settings: DU-145, 48 h, read-out: Activity
SF-268 = assay: Growth inhibition of human SF268 cells assessed as cell growth at 1 mM after 48 hrs by SRB assay; settings: SF-268, 48 h, read-out: Activity
OVCAR-3 = assay: Growth inhibition of human OVCAR3 cells assessed as cell growth at 1 mM after 48 hrs by SRB assay; settings: OVCAR-3, 48 h, read-out: Activity
RXF 393 [16] = assay: Growth inhibition of human RXF393 cells assessed as cell growth at 1 mM after 48 hrs by SRB assay; settings: RXF 393, 48 h, read-out: Activity
MDA-MB-435 = assay: Growth inhibition of human MDA-MB-435 cells after 48 hrs by SRB assay; settings: MDA-MB-435, 48 h
BT-549 = assay: Growth inhibition of human BT549 cells assessed as cell growth at 0.1 uM after 48 hrs by SRB assay; settings: BT-549, 48 h, read-out: Activity
EKVX = assay: Growth inhibition of human EKVX cells assessed as cell growth at 1 uM after 48 hrs by SRB assay; settings: read-out: Activity
U-251 = assay: Growth inhibition of human U251 cells assessed as cell growth at 1 uM after 48 hrs by SRB assay; settings: U-251, 48 h, read-out: Activity
[17] = read-out: LC50 (the source's name)
[18] = read-out: pLC50 (the source's name) (converted)

Compound `CNC(=O)OC[C@H]1O[C@@H](n2cnc3c(NC(=O)Nc4ccccc4)ncnc32)[C@H](O[Si](C)(C)C(C)(C)C)[C@@H]1O[Si](C)(C)C(C)(C)C` has a growth at 10 µM (A549) of 80.8%, a growth at 10 µM (SF-295 [1]) of 108% and a growth at 10 µM (SK-MEL-2) of 82.9%. It also gave a growth at 10 µM (OVCAR-4 [2]) of 85.8% and a growth at 10 µM (MCF7 [3]) of 87.8%.
For `CNC(=O)NC[C@H]1O[C@@H](n2cnc3c(NC(=O)Nc4ccccc4)ncnc32)[C@H](O[Si](C)(C)C(C)(C)C)[C@@H]1O[Si](C)(C)C(C)(C)C`, the growth at 1 µM (ACHN) was 108%, the growth at 1 µM (TK-10) was 113% and the growth at 1 µM (MCF7 [4]) was 96%. The growth at 10 µM (A549) was 90%, the growth at 10 µM (SF-295 [1]) was 111% and the GI50 (HOP-62; read-out: GI50) was 4.98 µM. For the same compound, the CC50 (HOP-62; [17]) was 48 µM, the TGI (HOP-62; read-out: TGI) was 17.1 µM and the GI50 (HOP-62; read-out: pGI50 (converted)) was 5.01 µM. The CC50 (HOP-62; [18]) was 47.9 µM, the TGI (HOP-62; read-out: pTGI (converted)) was 17 µM and the GI50 (NCI-H460; read-out: GI50) was 1.72 µM. The CC50 (NCI-H460; [17]) was 7.11 µM, the TGI (NCI-H460; read-out: TGI) was 3.49 µM and the GI50 (NCI-H460; read-out: pGI50 (converted)) was 1.7 µM. The CC50 (NCI-H460; [18]) was 7.08 µM, the TGI (NCI-H460; read-out: pTGI (converted)) was 3.47 µM and the GI50 (M14 [5]; read-out: GI50) was 4.33 µM. The CC50 (M14 [5]; [17]) was 93.8 µM, the TGI (M14 [5]; read-out: TGI) was 18.5 µM and the GI50 (M14 [5]; read-out: pGI50 (converted)) was 4.37 µM. The CC50 (M14 [5]; [18]) was 93.3 µM, the TGI (M14 [5]; read-out: pTGI (converted)) was 18.6 µM and the GI50 (UACC-62 [6]; read-out: GI50) was 3.98 µM. It also gave a CC50 (UACC-62 [6]; [17]) of over 100 µM, a TGI (UACC-62 [6]; read-out: TGI) of 23.6 µM and a GI50 (UACC-62 [6]; read-out: pGI50 (converted)) of 3.98 µM. It also gave a CC50 (UACC-62 [6]; [18]) of over 100 µM, a TGI (UACC-62 [6]; read-out: pTGI (converted)) of 23.4 µM and a GI50 (SNB-75; read-out: GI50) of 2.43 µM. The CC50 (SNB-75; [17]) was over 100 µM, the TGI (SNB-75; read-out: TGI) was 34.1 µM and the GI50 (SNB-75; read-out: pGI50 (converted)) was 2.45 µM. It also gave a CC50 (SNB-75; [18]) of over 100 µM, a TGI (SNB-75; read-out: pTGI (converted)) of 33.9 µM and a growth at 0.1 µM (SF-295 [7]) of 103%. It also gave a growth at 0.1 µM (Malme-3M) of 105%, a growth at 0.1 µM (SK-MEL-5 [8]) of 102% and a growth at 0.1 µM (OVCAR-4 [9]) of 106%. The growth at 0.1 µM (OVCAR-8) was 108%, the growth at 0.1 µM (MCF7 [10]) was 99% and the growth at 10 µM (SK-MEL-2) was 105%. The growth at 10 µM (OVCAR-4 [2]) was 100%, the growth at 10 µM (MCF7 [3]) was 83% and the growth at 100 µM (SF-295 [11]) was 7%. For the same compound, the growth at 100 µM (SF-539) was 7%, the growth at 100 µM (M14 [12]) was 19% and the growth at 100 µM (SK-MEL-5 [13]) was -42%. For the same compound, the growth at 100 µM (UACC-62 [14]) was 23%, the growth at 100 µM (A498) was -39% and the growth at 100 µM (RXF 393 [15]) was -73%. For the same compound, the growth at 100 µM (DU-145) was -35%, the growth at 1000 µM (SF-268) was -45% and the growth at 1000 µM (OVCAR-3) was -50%. It also gave a growth at 1000 µM (RXF 393 [16]) of -77%, a GI50 (MDA-MB-435; read-out: GI50) of 3.41 µM and an LC50 (MDA-MB-435; read-out: LC50) of over 100 µM. It also gave a TGI (MDA-MB-435; read-out: TGI) of 29.1 µM, a GI50 (MDA-MB-435; read-out: pGI50 (converted)) of 3.39 µM and an LC50 (MDA-MB-435; read-out: pLC50 (converted)) of over 100 µM. It also gave a TGI (MDA-MB-435; read-out: pTGI (converted)) of 28.8 µM, a growth at 0.1 µM (BT-549) of 113% and a growth at 1 µM (EKVX) of 111%. The growth at 1 µM (U-251) was 102%.
